Reference: patent US20220226484A1, “THERAPEUTIC PEPTIDES” (COHBAR, INC., priority 2019, published 2022)
Positions of bridges follow the written chain, without caps; N, C: chain ends. Non-standard residues stand in square brackets, D forms with d. Primed or numbered codes have the meaning given here. Chains are numbered I, II in the order given. No end group written: not given here. PEG12′ = not defined here

What was measured:
Type in all cases: cell-based
[1] = tested on: C2C12 Mouse Myoblasts; assay: Glucose utilization; settings: metformin 1 mM
Procedure: The effect of the peptides on glucose metabolism can be assessed using an assay of glucose utilization in cultured cultured cells such as mouse myoblasts. Peptides were initially prepared as 10 mM stock in DMSO and used at a final concentration of 10 μM (0.1% DMSO). C2C12 mouse myoblast cell line was purchased from American Type Culture Collection (Manassas, Va.). C2C12 cultures were maintained at 37° C. in a humidified atmosphere of 5% CO2/95% air with medium changes every second day. C2C12 cells were grown in DMEM (1 g/L glucose) supplemented with 10% FBS with 100 IU/ml penicillin and 100 μg/ml streptomycin. C2C12 cells were seeded at 7,000 cells per well on 96-well plates and cultured to confluence. Once the cell reached confluence the media was changed to DMEM (1 g/L glucose) supplemented with 2% HS with 100 IU/ml penicillin and 100 μg/ml streptomycin and maintained at 37° C. in a humidified atmosphere of 5% CO2/95% air. 5 days post-induction of differentiation fresh DMEM (1 g/L glucose) supplemented with 2% HS with 100 IU/ml penicillin and 100 μg/ml streptomycin was added to cultures. Cells were maintained at 37° C. in a humidified atmosphere of 5% CO2 and 95% air for 5 hours. After 5 hours test peptides at 10 μM or controls (0.5 mM or 1 mM metformin in 1% DMSO) prepared in fresh differentiation medium were added to cells and the cultures were maintained at 37° C. in a humidified atmosphere of 5% CO2/95% air for 18-22 hours. At the end of the incubation culture media was removed from the cells and the remaining glucose concentration was measured using a Glucose Assay kit (Abcam) according to the manufacturer's instructions, using a Cytation 3 plate reader at 570 nm (BioTek, Winooski, Vt.). Glucose concentrations in the medium were calculated relative to 0.1% DMSO treated control cells. The relative standard deviation of the result for the 0.1% DMSO treated control was <20%. Metformin was used as a positive control for reduction of glucose levels (increased glucose utilization glucose levels for treatment with metformin (1 mM) treatment were <20% of the 0.1% DMSO treated control value. The results are reported in Table 7.

[2] = tested on: 3T3-L1 Mouse Adipocytes; assay: Insulin-dependent effect on free fatty acid levels in cultured mouse adipocytes; settings: 3 hours; for Free Fatty Acid Levels, MEAN % ISO, +Insulin: peptide 10 μM + insulin 0.25 nM, percent of isoproterenol (0.1 nM)+insulin (0.25 nM); for Free Fatty Acid Levels, MEAN % ISO, −Insulin: peptide 10 μM alone, percent of isoproterenol (0.1 nM) treated control cells
Procedure: The effect of the peptides on fatty acid metabolism was assessed in the absence and presence of insulin using an assay of free fatty acid levels in cultured cells such as mouse adipocytes. Peptides were initially prepared as 10 mM stock in DMSO and used at a final concentration of 10 μM (0.1% DMSO). […] Insulin (0.25 nM) was used as a partial inhibitor and insulin (10 nM) was used as a potent inhibitor of isoproterenol stimulated fatty acid production. Mouse 3T3-L1 cells purchased from ZenBio (Research Triangle Park, N.C.) were seeded at 3,000 cells per well on 96-well plates in Pre-Adipocyte Medium (Zen-Bio) and grown to confluence at 37° C. in a humidified atmosphere of 5% CO2/95% air. Two days after confluence, cells were placed in Adipocyte Differentiation Medium (Zen-Bio) and cultured for three additional days at 37° C. in a humidified atmosphere of 5% CO2/95% air. The culture medium was then partially replaced with Adipocyte Maintenance Medium (Zen-Bio) and the cells maintained at 37° C. in a humidified atmosphere of 5% CO2/95% air with partial medium replacement every other day. At 12 day of differentiation, 96-well cultures were transferred to Adipocyte Maintenance Medium without insulin and placed at 37° C. in a humidified atmosphere of 5% CO2/95% air for two days. Following this incubation period, the medium was removed from 14 day differentiated cultures and replaced with Assay Buffer (Zen-Bio) containing peptides (10 μM), insulin (0.25 nM or 10 nM), isoproterenol (0.1 nM) as appropriate. […] isoproterenol was added to all wells except untreated controls. Insulin at 0.1 nM and 10 nM was added to control wells. Peptides (10 μM) in the absence or presence of insulin (0.25 nM) were added to test wells. Cells in the presence of compounds were placed at 37° C. in a humidified atmosphere of 5% CO2/95% air for 3 hours. At the end of the final 3 h incubation, conditioned assay buffer was removed from each well and place in a fresh 96-well plate for quantitation of free fatty acid content. Free fatty acid concentrations in the assay buffer samples were determined using a Free Fatty Acid Assay kit (Zen-Bio) according to the manufacturer's instructions using a Cytation 3 plate reader at 540 nm (BioTek, Winooski, VD. Absorbance values were corrected for untreated background and expressed as a percent of isoproterenol (0.1 nM) treated control cells for peptides alone or isoproterenol (0.1 nM)+insulin (0.25 nM) for peptides in presence of insulin (0.25 nM). Treatment with isoproterenol […] alone was used as the free fatty acid level stimulatory control. The relative standard deviation of the isoproterenol control was <10%. […] Free fatty acid levels for insulin (10 nM) treatment were <5% of the isoproterenol control value. Free fatty acid levels for insulin (0.25 nM) treatment were 60-80% of the isoproterenol control value.

[3] = tested on: H4IIE Rat Hepatoma Cells; assay: Insulin-dependent effect on glucose production by cultured rat liver cells; settings: 24 hour; for Glucose Levels, MEAN % Control, +Insulin: peptide 10 μM + insulin 800 pM, percent of insulin (800 pM); for Glucose Levels, MEAN % Control, −Insulin: peptide 10 μM alone, percent of untreated control cells
Procedure: The effect of the peptides on glucose production was assessed in the absence and presence of insulin using an assay of glucose levels in cultured cells such as rat hepatocytes. Peptides were initially prepared as 10 mM stock in DMSO and used at a final concentration of 10 μM (0.1% DMSO). Insulin (800 pM) was used as a partial inhibitor of glucose production. H4-IIE cells purchased from ATCC (Manassas, Va.) were seeded at 100,000 cells/well in standard medium (DMEM/high glucose+10% FBS+1× Glutamax+antibiotics) on 96-well plates and allowed to adhere overnight at 37° C. in a humidified atmosphere of 5% CO2/95% air. Approximately 24 h after seeding, the medium was removed, cells rinsed with glucose free DMEM, and Glucose Production Medium (glucose free DMEM+2 mM sodium pyruvate+10 mM sodium lactate) was added. The cultures were placed at 37° C. in a humidified atmosphere of 5% CO2/95% air overnight. The next morning, the medium was removed and fresh Glucose Production Medium containing compounds was added. Insulin at 800 pM was added to control wells. Peptides (10 μM) in the absence or presence of insulin (800 pM) were added to test wells. Cells in the presence of compounds were placed at 37° C. in a humidified atmosphere of 5% CO2/95% air overnight. After 24 hour incubation, conditioned medium from each well was transferred to a fresh 96-well plate for quantitation of glucose content. Quantitation of glucose levels was determined using an Amplex Red Glucose Assay kit (Abacm; Cambridge, Mass.) according to the manufacturer's instructions using a Cytation 3 plate reader at 570 nm (BioTek, Winooski, Vt.). Absorbance values were expressed as a percent of untreated control cells (maximum glucose production) for peptide alone samples or insulin (800 pM) for peptides in the presence of insulin (800 pM. Glucose levels for insulin (800 pM) treatment were ˜80-90% of the untreated control values. The results are reported in Table 15.

[4] = tested on: WI-38 cells (human fetal lung fibroblast cells); assay: Fibroblast-to-myofibroblast transition assay, pro-collagen I alpha 1 expression; settings: 10 μM peptide and 5 ng/ml TGF-β, 48 h, cell lysates
Procedure: The effect of the peptides on fibrosis can be assessed in vitro using a fibroblast-to-myofibroblast transition (FMT) assay and monitoring pro-collagen I alpha 1 expression produced by cultured cells such as human fetal lung fibroblast cells. Peptides were initially prepared as 10 mM stock solutions in DMSO or 1 mM stock in H2O and were used at a final concentration of 10 μM (0-0.1% DMSO). Transforming Growth Factor beta (TGF-β) was used as a potent inducer of FMT as measured by increased pro-collagen I alpha 1 expression. Human WI-38 cell line was purchased from American Type Culture Collection (Manassas, Va.). WI-38 cells were seeded in complete medium (DMEM/high glucose (4 g/L)+10% Fetal Bovine Serum+1% penicillin/streptomycin) at 40,000 cells/well on 48-well plates and placed at 37° C. in a humidified atmosphere of 5% CO2/95% air. The next day, the medium was removed, cells were rinsed twice with HBSS, and the medium replaced with Serum Restricted Medium (DMEM/high glucose (4 g/L)+0.2% Fetal Bovine Serum+1% penicillin/streptomycin). The cultures were placed at 37° C. in a humidified atmosphere of 5% CO2/95% air overnight. Following 24 h in Serum Restricted Medium, the medium was removed, and the following was added: fresh Serum Restricted Medium alone (no TGF-β control); fresh Serum Restricted Medium containing 5 ng/ml TGF-β (TGF-β control); or fresh Serum Restricted Medium containing 10 μM peptide and 5 ng/ml TGF-β. Cells were incubated for 48 h at 37° C. in a humidified atmosphere of 5% CO2/95% air, washed twice with cold HBSS and immediately lysed. Lysis and determination of pro-collagen I alpha 1 concentrations in the cell lysates were performed using a Pro-Collagen I Alpha 1 ELISA kit (Abcam; Cambridge, Mass.) according to the manufacturer's instructions; absorbance was measured using a Cytation 3 plate reader at 450 nm (BioTek, Winooski, Vt.).

[5] = tested on: Rat primary cortical neurons; assay: Neuroprotection against Aβ (1-42) toxicity in cultured neurons; settings: Aβ (1-42) 20 μM + BDNF 50 ng/mL, 24 hours
Procedure: Rat primary cortical neurons were collected and cultured by methods well known in the art (Singer et al., 1999 and Callizot et al., 2013). The cells were seeded at a density of 25,000 per well in 96-well plates precoated with poly-L-lysine and cultured at 37° C. in an air (95%)-CO2 (5%) incubator. The medium was changed every 2 days. The cortical neurons were treated after 11 days of culture. The A13(1-42) was prepared using the procedure described by Callizot et al., 2013 to ensure monomeric peptide. Compounds and the positive control, BDNF (50 ng/ml), were dissolved in culture medium and then pre-incubated with primary cortical neurons for 1 hour before addition of A13(1-42) (20 μM). After 24 hours of treatment, the cell culture supernatant was removed and the cortical neurons were fixed by a cold solution of ethanol (95%) and acetic acid (5%) for 5 min at −20° C. After permeabilization with 0.1% of saponin, cells were incubated for 2 hours with mouse monoclonal antibody anti-microtubule-associated-protein 2 (MAP-2) at a dilution of 1/400 in PBS containing 1% fetal calf serum and 0.1% of saponin to stain cell bodies and neurites.
This antibody was detected with Alexa Fluor 488 goat anti-mouse IgG at the dilution 1/400 in PBS containing 1% FCS, 0.1% saponin, for 1 hour at room temperature. For each condition, images were obtained using ImageXpress (Molecular Devices) with 20× magnification. The total number of cells and extent of neurite network was determined using Custom Module Editor (Molecular Devices).

With `CN(C)C(=N)N=C(N)N` [metformin, reference compound] the “glucose levels, % of the 0.1% DMSO treated control value” [1] was less than 20%.

With “RVIRMCLNVGLLGEL(dA)G [SEQ ID NO: 27] (chain 1 RVIRMCLNVGLLGEL[dA]G; chain 2 RVIRMCLNVGLLGEL[dA]G; disulfide I:6-II:6)” the “Free Fatty Acid Levels, MEAN % ISO, +Insulin” value ([2]; listed as 27) was 28.2%, the “Free Fatty Acid Levels, MEAN % ISO, −Insulin” value ([2]; listed as 27) was 94.5% and the “Glucose Levels, MEAN % Control, +Insulin” value ([3]; listed as 27) was 54.3%. For the same molecule, the “Glucose Levels, MEAN % Control, −Insulin” value ([3]; listed as 27) was 108% and the “Procollagen I Alpha 1 Mean (SEM)” value [4] was 4120 (677) pg/mL.

In the case of “RVIRMCLNVGLNGEL(dA)E (RVIRMCLNVGLNGEL[dA]E) [SEQ ID NO: 20]”, the “Free Fatty Acid Levels, MEAN % ISO, +Insulin” value [2] is reported as 97.5%, the “Free Fatty Acid Levels, MEAN % ISO, −Insulin” value [2] is reported as 102% and the “Glucose Levels, MEAN % Control, +Insulin” value [3] is reported as 75.1%. For the same molecule, the “Glucose Levels, MEAN % Control, −Insulin” value [3] was 110% and the “Procollagen I Alpha 1 Mean (SEM)” value [4] was 4680 (377) pg/mL.

“{PEG12}KRVIRMCLGVGLLGDLAG ([PEG12′]KRVIRMCLGVGLLGDLAG) [SEQ ID NO: 16]” was tested, and the “Free Fatty Acid Levels, MEAN % ISO, +Insulin” value [2] was 33.4%, the “Free Fatty Acid Levels, MEAN % ISO, −Insulin” value [2] was 54.6% and the “Glucose Levels, MEAN % Control, +Insulin” value [3] was 79.8%. The “Glucose Levels, MEAN % Control, −Insulin” value [3] was 104% and the “Procollagen I Alpha 1 Mean (SEM)” value [4] was 3980 (569) pg/mL.

B1: BDNF: positive control, BDNF (50 ng/ml) (protein, UniProt P23560 19-247, looked up)
Neurotrophic factor BDNF …: APMKEANIRGQGGLAYPGVRTHGTLESVNGPKAGSRGLTSLADTFEHVIEELLDEDQKVRPNEENNKDADLYTSRVMLSSQVPLEPPLLFLLEEYKNYLDAANMSMRVRRHSDPARRGELSVCDSISEWVTAADKKTAVDMSGGTVTVLEKVPVSKGQLKQYFYETKCNPMGYTKEGCRGIDKRHWNSQCRTTQSYVRALTMDSKKRIGWRFIRIDTSCVCTLTIKRGR
For B1, the “Percent Protection of Neuronal Network” value [5] was 95% and the “Percent Survival of Neurons” value [5] was 98%.
